≈ marks a conversion by molar mass, not a printed value.
Key:
VZV strain Ellen = experiment: VZV Antiviral (ELISA) assay; type: cell-based; conditions: for IC50: Human alphaherpesvirus 3, VZV strain Ellen in HFF cells, read-out: IC50 (ug/ml) VZV; for IC50 (ug/ml) VZV / % inhibition 10 ug/ml VZV: VZV strain Ellen in HFF cells; for % inhibition 10 ug/ml VZV: at 10 ug/ml; for inhibition at 10 µg/mL: Human alphaherpesvirus 3, read-out: % inhibition 10 ug/ml VZV, at 10 ug/ml, VZV strain Ellen in HFF cells
How it was run: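 HFF cells infected with VZV Ellen at low multiplicity (<0.1) overnight were seeded at 3.5×10^4 cells/well in DMEM with 2% FBS plus compound and incubated three days at 37° C., 5% CO2. Viral replication was read by ELISA against glycoprotein II with β-galactosidase fluorogenic readout (ex 365/em 450 nm); IC50 relative to no-compound fluorescence.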

[1] = tested on: HCMV recombinant mutant virus (RV145); experiment: HCMV microtiter plate assay (beta-glucuronidase reporter); type: cell-based, Human Cytomegalovirus; conditions: for IC50: Human betaherpesvirus 5, Fibroblast, read-out: IC50 (ug/ml) HCMV; for IC50 (ug/ml) HCMV: HCMV in human foreskin fibroblasts
How it was run: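 Replication was read out as virus-encoded β-glucuronidase activity, measured with a chromogenic or fluorogenic glucuronide substrate in cell lysates at 96 h post-infection. Infection of human foreskin fibroblasts with RV145 took place with compound present. IC50 was derived from a range of inhibitor amounts.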

HSV-1 = experiment: HSV Antiviral (ELISA) assay; type: cell-based; conditions: for IC50: Human alphaherpesvirus 1, HSV-1 in Vero cells, read-out: IC50 (ug/ml) HSV; for IC50 (ug/ml) HSV: HSV-1 in Vero cells
How it was run: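 Replication measured as glycoprotein D signal in fixed cells: anti-gD antibody plus β-galactosidase-linked secondary, fluorogenic substrate read at 365/450 nm. Vero cells (2% FBS DMEM) received compound 30 min pre-infection, HSV-1 MOI 0.006, ~24 h incubation; IC50 relative to no-compound fluorescence.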

Row | SMILES | IC50 (VZV strain Ellen) | IC50 [1] | IC50 (HSV-1) | IC50 (ug/ml) VZV (VZV strain Ellen) | % inhibition 10 ug/ml VZV (VZV strain Ellen) | IC50 (ug/ml) HCMV [1] | IC50 (ug/ml) HSV (HSV-1) | inhibition at 10 µg/mL (VZV strain Ellen)
1 | Cc1nc(C(=O)Nc2ccc(NC(=S)Nc3cc(Cl)cc(Cl)c3)cc2)cs1 [Example 1138, 2-Methyl-thiazole-4-carboxylic acid {4-[3-(3,5-dichloro-phenyl)-thioureido]-phenyl}-amide] | > 10 µg/mL | 0.65 µg/mL (≈ 1.49 µM) | > 10 µg/mL |  |  |  |  | 
2 | COc1cc(OC)c(NC(=S)Nc2ccc(NC(=O)c3ccoc3)cc2)cc1Cl [Example 166] |  |  |  | >10 µg/mL | 30% | >10 µg/mL | 9 µg/mL (≈ 20.8 µM) | 
3 | COc1cc(OC)c(NC(=S)Nc2ccc(NC(=O)c3sccc3Br)cc2)cc1Cl [Example 175] |  |  |  | >10 µg/mL | 24% | >10 µg/mL | 2 µg/mL (≈ 3.8 µM) | 
4 | COc1cc(OC)c(NC(=S)Nc2ccc(NC(=O)c3ccncc3)cc2)cc1Cl [Example 155] |  |  |  | >10 µg/mL | 22% | 5 µg/mL (≈ 11.3 µM) | 5 µg/mL (≈ 11.3 µM) | 
5 | Cc1cccc(NC(=S)Nc2ccc(NC(=O)c3csnn3)cc2)c1 [Example 456] |  |  |  | >10 µg/mL | 12% | 0.07 µg/mL (≈ 0.189 µM) | >10 µg/mL | 
6 | COc1cc(OC)c(NC(=S)Nc2ccc(NC(=O)c3nnsc3-c3ccoc3)cc2)cc1Cl [Example 280] |  |  |  | >10 µg/mL |  | >10 µg/mL | >10 µg/mL | 
7 | O=C(Nc1ccc(NC(=S)NCc2cc(C(F)(F)F)cc(C(F)(F)F)c2)cc1)c1ccco1 [Example 547] |  |  |  | 10 µg/mL (≈ 20.5 µM) |  | 0.006 µg/mL (≈ 0.0123 µM) | >10 µg/mL | 
8 | COc1cc(OC)c(NC(=S)Nc2ccc(NC(=O)c3nnsc3C)cc2)cc1Cl [Example 279] |  |  |  | >10 µg/mL |  | >10 µg/mL | >10 µg/mL | 
9 | CC(C)c1nc(C(=O)Nc2ccc(NC(=S)Nc3cc(C(F)(F)F)cc(C(F)(F)F)c3)cc2)cs1 [Example 1133, 2-Isopropyl-thiazole-4-carboxylic acid {4-[3-(3,5 bis-trifluoromethyl-phenyl)-thioureido]-phenyl}-amide] | > 10 µg/mL | 1.5 µg/mL (≈ 2.82 µM) | 6 µg/mL (≈ 11.3 µM) |  |  |  |  | 
10 | COc1cc(OC)c(NC(=S)Nc2ccc(NC(=O)c3nnsc3-c3ccccc3)cc2)cc1Cl [Example 281] |  |  |  | >10 µg/mL | 31% | >10 µg/mL | >10 µg/mL | 
11 | CC(NC(=S)Nc1ccc(NC(=O)c2csnn2)cc1)c1ccc(Br)cc1 (centres unmarked) [Example 647] |  |  |  | 0.1 µg/mL (≈ 0.216 µM) |  | 0.007 µg/mL (≈ 0.0151 µM) | >10 µg/mL | 
12 | O=C(Nc1ccc(NC(=S)NCc2ccc3c(c2)OCO3)cc1)c1csnn1 [Example 541] |  |  |  | >10 µg/mL |  | 0.017 µg/mL (≈ 0.0411 µM) | 7 µg/mL (≈ 16.9 µM) | 
13 | O=C(Nc1ccc(NC(=S)NCc2ccccc2)cc1)c1ccco1 [Example 544] |  |  |  | >10 µg/mL |  | 0.02 µg/mL (≈ 0.0569 µM) | >10 µg/mL | 
14 | O=C(Nc1ccc(NC(=S)Nc2ccc(Cl)nc2)cc1)c1ccco1 [Example 445] |  |  |  | >10 µg/mL |  | 0.15 µg/mL (≈ 0.402 µM) | 10 µg/mL (≈ 26.8 µM) | 
15 | Cc1ccc(CCNC(=S)Nc2ccc(NC(=O)c3csnn3)cc2)cc1 [Example 638] |  |  |  | >10 µg/mL |  | 0.01 µg/mL (≈ 0.0252 µM) | >10 µg/mL | 
16 | O=C(Nc1ccc(NC(=S)Nc2ccccc2)cc1)c1ccco1 [Example 911, Furan-2-carboxylic acid [4-(3-phenyl-thioureido)-phenyl]-amide] | > 10 µg/mL | 0.3 µg/mL (≈ 0.889 µM) | > 10 µg/mL |  |  |  |  | 25%
17 | O=C(Nc1ccc(NC(=S)Nc2cccc(Cl)c2)cc1)c1ccccc1F [Example 994, N-{4-[3-(3-Chloro-phenyl)-thioureido]-phenyl}-2-fluoro-benzamide] | > 10 µg/mL | 0.07 µg/mL (≈ 0.175 µM) | > 10 µg/mL |  |  |  |  | 
18 | COc1cccc(CCNC(=S)Nc2ccc(NC(=O)c3ccco3)cc2)c1 [Example 607] |  |  |  | >10 µg/mL |  | 0.09 µg/mL (≈ 0.228 µM) | 8 µg/mL (≈ 20.2 µM) | 
19 | CC(=O)Nc1ccc(NC(=S)Nc2ccc(C)c(Cl)c2)cc1 [Example 939, N-{4-[3-(3-Chloro-4-methyl-phenyl)-thioureido]-phenyl} -acetamide] | 15 µg/mL (≈ 44.9 µM) | 0.018 µg/mL (≈ 0.0539 µM) | > 10 µg/mL |  |  |  |  | 53%
20 | O=C(Nc1ccc(NC(=S)Nc2ccc(I)c(Cl)c2)cc1)c1ccccc1F [Example 966, N-{4-[3-(3-Chloro-4-iodo-phenyl)-thioureido]-phenyl} -2-fluoro-benzamide] |  | 0.02 µg/mL (≈ 0.038 µM) | > 10 µg/mL |  |  |  |  | 42%
21 | COc1cc(C)c(Cl)cc1NC(=S)Nc1ccc(NC(=O)c2ccco2)cc1 [Example 353] |  |  |  | 7 µg/mL (≈ 16.8 µM) | 86% | 0.04 µg/mL (≈ 0.0962 µM) | 0.6 µg/mL (≈ 1.44 µM) | 
22 | COc1c(Cl)cc(NC(=S)Nc2ccc(NC(=O)c3ccco3)cc2)cc1Cl [Example 875, Furan-2-carboxylic acid {4-[3-(3,5-dichloro-4-methoxy-phenyl)-thioureido]-phenyl}-amide] | > 10 µg/mL | > 2.2 µg/mL | > 50 µg/mL |  |  |  |  | 18%
23 | Nc1ccc(CCNC(=S)Nc2ccc(NC(=O)c3ccco3)cc2)cc1 [Example 603] |  |  |  | >10 µg/mL |  | >0.5 µg/mL | >10 µg/mL | 
24 | O=C(Nc1ccc(NC(=S)Nc2cc(Cl)cc(Cl)c2)cc1)c1csnn1 [Example 921, [1,2,3]Thiadiazole-4carboxylic acid {4-[3-(3,5-dichloro-phenyl)-thioureido]-phenyl}-amide] | 7 µg/mL (≈ 16.5 µM) | 0.05 µg/mL (≈ 0.118 µM) | 8 µg/mL (≈ 18.9 µM) |  |  |  |  | 85%
25 | CN(C)c1ccc(Cl)cc1NC(=S)Nc1ccc(NC(=O)c2csnn2)cc1 [Example 500] |  |  |  | >10 µg/mL | 48% | 0.021 µg/mL (≈ 0.0485 µM) | >10 µg/mL | 

Reference: patent US6426355B1, “Heterocyclic carboxamide-containing thiourea inhibitors of herpes viruses containing phenylenediamine group” (American Home Products, priority 1998, dated 2002)
